Where two headings read alike, the source gives them in different places.
How the values were obtained:
hM1 mAChR [1] = target: T1, hM1 mAChR (Homo sapiens, UniProt P11229); assay: IP1 accumulation assay (ACh concentration-response curves in absence or presence of modulator); assay type: cell-based; settings: for αβ (functional cooperativity with ACh) / τB (intrinsic efficacy of the modulator) / log τB (logarithm of intrinsic efficacy of the modulator) / log αβ (logarithm of functional cooperativity between ACh and modulator): IP1 accumulation; for αβ (functional cooperativity with ACh) / τB (intrinsic efficacy of the modulator): antilog, in parentheses; for log τB (logarithm of intrinsic efficacy of the modulator) / log αβ (logarithm of functional cooperativity between ACh and modulator): operational model; for log αβ (logarithm of functional cooperativity between ACh and modulator): pKB constrained to binding value; for ΔpEC50 [1 μM]: change in ACh pEC50 in presence of M1 PAM compared to control curve / activation at 1 µM: 1 μM modulator; for ΔpEC50 [1 μM]: change in ACh pEC50 in presence of M1 PAM compared to control curve / activation at 1 µM / ΔpEC50 [10 μM]: change in ACh pEC50 in presence of M1 PAM compared to control curve / activation at 10 µM: FlpIn CHO hM1 cells, mean ± SEM, 3 experiments; for activation at 1 µM: read-out: Δbaseline [1 μM]: change in basal response in presence of M1 PAM compared to control curve; for ΔpEC50 [10 μM]: change in ACh pEC50 in presence of M1 PAM compared to control curve / activation at 10 µM: 10 μM modulator; for activation at 10 µM: read-out: Δbaseline [10 μM]: change in basal response in presence of M1 PAM compared to control curve
T1 construct: expressed in transfected cells
T1 sequence (P11229 1-460): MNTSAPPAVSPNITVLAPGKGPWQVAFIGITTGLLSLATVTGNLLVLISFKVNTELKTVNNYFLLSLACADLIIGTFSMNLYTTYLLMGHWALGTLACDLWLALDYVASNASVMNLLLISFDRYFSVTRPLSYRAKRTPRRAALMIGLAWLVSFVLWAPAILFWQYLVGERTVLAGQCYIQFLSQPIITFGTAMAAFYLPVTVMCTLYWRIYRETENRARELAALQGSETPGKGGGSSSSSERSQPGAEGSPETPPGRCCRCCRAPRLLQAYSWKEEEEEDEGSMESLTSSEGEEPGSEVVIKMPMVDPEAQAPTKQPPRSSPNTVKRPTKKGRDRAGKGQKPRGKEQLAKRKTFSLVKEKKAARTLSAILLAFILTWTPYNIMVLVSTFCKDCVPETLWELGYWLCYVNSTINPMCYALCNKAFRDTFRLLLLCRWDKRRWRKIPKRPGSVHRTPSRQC
Procedure: Functional activity of the synthesized analogues as racemic mixtures was investigated in IP1 accumulation assays at the M1 mAChR, as described previously.[13–14] ACh concentration-response curves were generated in the absence or presence of a 1 and 10 μM concentration of each modulator. The change in baseline activity (Δbaseline) is an approximate measure of direct allosteric agonism (τB), whereas the pEC50 shift (ΔpEC50) is an approximate measure of functional cooperativity (αβ) of each modulator with ACh in the investigated signalling pathway. We aimed to identify modulators with various degrees of allosteric agonism and modulatory effects on ACh response, as these could generate distinct in vivo outcomes for applications in different conditions in the CNS or gastrointestinal (GI) tract.[[10g,h,j]]
(§1) The compounds were then fully characterised in two functional assays (Figure 2C and D); the Gq-coupled IP1 accumulation assay (Figure S2), which was used for the initial screening of the compounds, and a β-arrestin 2 recruitment assay (Figure S3). The operational efficacy (τB) values for the modulators and their functional cooperativity estimates with ACh (logαβACh) at both signalling pathways were estimated by applying an operational model of allosterism and agonism to the data [Eq. (3)],[16] and are listed in Table 5.
FlpIn CHO cells stably expressing the hM1 mAChR were seeded at 25000 per well of 96-well transparent cell culture plates and grown overnight. […] Cells were then stimulated with increasing concentration of ACh in the absence or presence of increasing concentrations of each modulator for 1 h at 37°C. […] Seven μL of cell lysates were transferred into wells of 384-well Proxiplates (Perki-nElmer Life Sciences), and IP1 levels were measured using the IP-One assay kit (Cisbio, Codolet, France). […] The signal was expressed as the HTRF ratio, interpolated from the standard curve, and normalized to the maximum response to ACh.
Changes in both baseline and pEC50 were quantified by subtracting the estimates at each M1 PAM concentrations with the control values. Propagation of the error on baseline and potency values were determined as follows [Eq. (1)]: σΔ=σPAM2+σcont.2 where σΔ is the standard error of the mean (SEM) for the change in value, and σPAM and σcont. are the SEM from the three-parameter logistic equation analysis in presence or absence of M1 PAM, respectively.
(§2) Functional interaction studies between ACh and allosteric modulators in IP1 and β-arrestin 2 recruitment assays were analysed according to a three-parameter logistic equation or the following operational model of allosterism and agonism [Eq. (3)].[16] E=Basal+(Em−Basal)([A](KB+αβ[B])+τB[B]EC50)^n/EC50n(KB+[B])^n+([A](KB+αβ[B])+τB[B]EC50)^n where Em is the maximal possible system response, and Basal is the response in the absence of agonist. [A] and [B] are concentrations of orthosteric and allosteric ligands, respectively. KB is the equilibrium dissociation constant of allosteric ligand, and EC50 is the concentration of orthosteric agonist required to achieve half maximal response. α and β represent the magnitude of the allosteric effects on orthosteric ligand affinity and efficacy, respectively; τB is the efficacy of allosteric ligand, and n is the slope factor of the transducer function that links occupancy to response.

M1 mAChR = target: T2, M1 mAChR (Homo sapiens, UniProt P11229); assay: β-arrestin 2 recruitment assay (BRET); assay type: cell-based; settings: for αβ (functional cooperativity with ACh) / τB (intrinsic efficacy of the modulator): antilog, in parentheses; for log τB (logarithm of intrinsic efficacy of the modulator) / log αβ (logarithm of functional cooperativity between ACh and modulator): operational model; for log αβ (logarithm of functional cooperativity between ACh and modulator): pKB constrained to binding value
T2 construct: expressed in transfected cells; host or cells: parental FlpIn CHO cells (transient, PEI)
T2 sequence (P11229 1-460): T1 sequence (P11229 1-460)
Text: as §1
Parental FlpIn CHO cells were plated at 30000 cells/well of 96-well white Culture plates (Perkin Elmer Life Sciences) and transiently transfected with 10 ng/well of M1 Renilla luciferase (Rluc)-8 and 40 ng/well of YFP-β-arrestin 2 using linear polyethyleneimine (PEI/DNA ratio 6:1) diluted in 150 mM NaCl. DNA:PEI complexes were formed by 15 min incubation at room temperature then added to the cells and incubated at 37°C for 24 h prior to use. Cells were then washed and equilibrated in Hanks’ balanced salt solution for 1 h at 37°C. Coelenterazine h at a final concentration of 5 μM was added to each well, followed by addition of increasing concentrations of ACh in the absence or presence of increasing concentrations of each modulator. Lumines-cence and fluorescence signals were measured 5 min after agonist stimulation using the LUMIstar Omega plate reader (BMG LabTech, Offenburg, Germany). […] Data were then normalized to the maximum response to ACh.
as §2

hM1 mAChR [2] = target: T1, hM1 mAChR; assay: Whole-cell [3H]NMS equilibrium competition radioligand binding; settings: [3H]NMS binding; for α (binding cooperativity with ACh): antilog
Procedure: To determine the affinity (pKB) of the allosteric modulators for the allosteric site, and their binding cooperativity with ACh (log αACh) at the M1 mAChR, whole cell equilibrium competition binding studies were performed, using [^3H]NMS to label the orthosteric site.
FlpIn Chinese hamster ovary (CHO) cells stably expressing the hM1 mAChR were grown in Dulbecco’s modified Eagle’s medium (DMEM) (Invitrogen, Carlsbad, CA) supplemented with 5% foetal bovine serum (FBS) (Thermo-Trace, Melbourne, Australia) and 300 μg/mL G418 (Invitrogen, Carlsbad, CA). The cells were plated at 50,000 cells per well of 96-well white clear bottom plates (Greiner Bio-one, Kremsmünster, Austria), and were grown overnight. The following day, cells were washed twice with Phosphate Buffered Saline (PBS), and incubated with increasing concentrations of ACh (Sigma) in the absence or presence of increasing concentrations of each modulator and 0.2 nM [^3H]NMS (PerkinElmer Life Sciences) in binding buffer (20 mM HEPES, 100 mM NaCl, 10 mM MgCl2, pH 7.4) for 5 h at room temperature. Nonspecific binding was determined using atropine at the final concentration of 10 μM. The assays were terminated by rapid removal of the unbound radioligand followed by two washes with 100 μL/well ice-cold 0.9% NaCl buffer. Radioactivity was determined by addition of 100 μL/well Ultima gold (PerkinElmer Life Sciences) and counting in a MicroBeta plate reader (PerkinElmer Life Sciences).
Binding interaction studies with allosteric ligands were fitted to the following allosteric ternary complex model [Eq. (2)][15] Y=Bmax|A|/[Λ]+[KAKB/α^′[B]+KB][1+[I]/K1+[B]/KB+α[I][B]/KIKB] where Bmax is the total number of receptors, [A], [B] and [I] denote the concentrations of radioligand, allosteric modulator, and orthosteric ligand, respectively; KA, KB and KI are their respective equilibrium dissociation constants. α’ and α are the affinity cooperativity factors between the allosteric ligand and radioligand or the allosteric modulator and ACh, respectively. Values of α or α’ > 1 denote positive cooperativity, values < 1 but > 0 denote negative cooperativity, and a value of 1 indicates neutral coopera-tivity.

[3] = allosteric ternary complex model, mean ± SEM, read-out: pKB (negative logarithm of the allosteric modulator equilibrium dissociation constant) (converted)
[4] = antilog of pKB, in parentheses, read-out: KB (converted)

αβ (functional cooperativity with ACh) (hM1 mAChR [1])	τB (intrinsic efficacy of the modulator) (hM1 mAChR [1])	log τB (logarithm of intrinsic efficacy of the modulator) (hM1 mAChR [1])	log αβ (logarithm of functional cooperativity between ACh and modulator) (hM1 mAChR [1])	αβ (functional cooperativity with ACh) (M1 mAChR)	τB (intrinsic efficacy of the modulator) (M1 mAChR)	log τB (logarithm of intrinsic efficacy of the modulator) (M1 mAChR)	log αβ (logarithm of functional cooperativity between ACh and modulator) (M1 mAChR)	α (binding cooperativity with ACh) (hM1 mAChR [2]; in parentheses)	log αACh (logarithm of binding cooperativity between ACh and modulator) (hM1 mAChR [2]; mean ± SEM)	ΔpEC50 [1 μM]: change in ACh pEC50 in presence of M1 PAM compared to control curve (hM1 mAChR [1])	activation at 1 µM (hM1 mAChR [1])	ΔpEC50 [10 μM]: change in ACh pEC50 in presence of M1 PAM compared to control curve (hM1 mAChR [1])	activation at 10 µM (hM1 mAChR [1])	Kb (hM1 mAChR [2]; [3])	Kb (hM1 mAChR [2]; [4])	SMILES
30	1	–	1.48±0.11	14	–	–	1.16±0.17	52	1.72±0.20	0.29±0.05	4.8 ± 1.4%	1.31±0.06	27 ± 1.5%	29.5 µM	30 µM	Cn1cc(-c2ccc(COc3ccccc3-c3ccn(C4CCCCC4=O)c(=O)c3)cc2)cn1 (stereo not drawn) [Compound 13d, 4-(2-((4-(1-Methyl-1H-pyrazol-4-yl)benzyl)oxy)phenyl)-1-(2-oxocy-clohexyl)pyridin-2(1H)-one]
–	3	0.54±0.02	1.89±0.07	95	2	0.28±0.04	1.98±0.10	120	2.08±0.13	–	100%	–	100%	3.31 µM	3 µM	Cn1cc(-c2ccc(COc3ncccc3-c3cc(=O)n(C4CCCCC4O)cn3)cc2)cn1 (stereo not drawn) [Compound 26a, 3-(2-Hydroxycyclohexyl)-6-(2-((4-(1-methyl-1H-pyrazol-4-yl)benzyl)oxy)pyridin-3-yl)pyrimidin-4(3H)-one]

Second part, the compound before the results:

SMILES	αβ (functional cooperativity with ACh) (hM1 mAChR [1])	τB (intrinsic efficacy of the modulator) (hM1 mAChR [1])	log τB (logarithm of intrinsic efficacy of the modulator) (hM1 mAChR [1])	log αβ (logarithm of functional cooperativity between ACh and modulator) (hM1 mAChR [1])	αβ (functional cooperativity with ACh) (M1 mAChR)	τB (intrinsic efficacy of the modulator) (M1 mAChR)	log τB (logarithm of intrinsic efficacy of the modulator) (M1 mAChR)	log αβ (logarithm of functional cooperativity between ACh and modulator) (M1 mAChR)	α (binding cooperativity with ACh) (hM1 mAChR [2]; in parentheses)	log αACh (logarithm of binding cooperativity between ACh and modulator) (hM1 mAChR [2]; mean ± SEM)	ΔpEC50 [1 μM]: change in ACh pEC50 in presence of M1 PAM compared to control curve (hM1 mAChR [1])	activation at 1 µM (hM1 mAChR [1])	ΔpEC50 [10 μM]: change in ACh pEC50 in presence of M1 PAM compared to control curve (hM1 mAChR [1])	activation at 10 µM (hM1 mAChR [1])	Kb (hM1 mAChR [2]; [3])	Kb (hM1 mAChR [2]; [4])
COc1ccc(Cn2cc(C(=O)O)c(=O)c3ccccc32)cc1 [BQCA, reference compound]	389	6	0.76±0.03	2.59±0.07	89	1	–0.03±0.10	1.95±0.19	245	2.39±0.22	–	–	–	–	–	–
Cn1cc(-c2ccc(COc3ccccc3-c3ccn(C4CCCCC4O)c(=O)c3)cc2)cn1 (stereo not drawn) [Compound 1, 1-(2-Hydroxycyclohexyl)-4-(2-((4-(1-methyl-1H-pyrazol-4-yl)-benzyl)oxy)phenyl)pyridin-2(1H)-one]	100	4	0.60±0.03	2.00±0.10	65	1	–0.01±0.05	1.81±0.09	112	2.05±0.17	0.88±0.09	15.8 ± 2.3%	1.31±0.15	58.3 ± 2.3%	11 µM	–
Cn1cc(-c2ccc(COc3ccsc3-c3ccn(C4CCCCC4O)c(=O)c3)cc2)cn1 (stereo not drawn) [Compound 7h, 1-(2-Hydroxycyclohexyl)-4-(3-((4-(1-methyl-1H-pyrazol-4-yl)benzyl)oxy)thiophen-2-yl)pyridin-2(1H)-one]	562	6	0.78±0.04	2.75±0.11	955	1	0.07±0.05	2.98±0.10	380	2.58±0.18	1.88±0.37	70.8 ± 4%	2.28±0.77	90.3 ± 3.1%	6.03 µM	–
